The test has as its target T1, TrkA (Homo sapiens, UniProt P04629).
T1 construct: aa 441-796; His; purchased Invitrogen PV3144
The test can be described thus: Isolated TRK enzyme assay (HTRF KinEASE-TK kit), PV3144 TrkA enzyme assay. It is filed as biochemical. To be noted: PV3144 TrkA enzyme assay, recombinant His-tagged cytoplasmic domain aa 441-796, 4 nM enzyme, 40 uM ATP; arithmetic mean where more than one reading; read-out: Trka enzyme (IC50). How it is done:
Isolated TRK Enzyme assays use the HTRF KinEASE-TK kit (Cisbio Cat#62TK0PEJ) with recombinant His-tagged cytoplasmic domains of each TRK receptor sourced from Invitrogen (see table below). This activity-assay measures the phosphorylation of tyrosine residues within a substrate from the HTRF kit which has been validated by Cisbio for a variety of tyrosine kinases including the TRK receptors.
0.5 mM stock solutions of test compounds are prepared and serially diluted in 100% DMSO. A standard curve using the compound of Example 135 disclosed in WO2005/116035 of 150 uM is also prepared on each test plate. High percentage effect (HPE) is defined by 150 uM (using the compound of Example 135 as disclosed in WO2005/116035) and 0% effect (ZPE) is defined by 100% DMSO. Greiner low volume black plates containing 0.2 ul of serially diluted compound, standard and HPE/ZPE are created using the Bravo nanolitre dispenser.
1X enzyme buffer is prepared from 5X Enzymatic Buffer from the Cisbio KinEASE TK kit using MilliQ water. The buffer is then supplemented with 10 mM MgCl and 2 mM DTT (both from Sigma). In the case of TRKB, the buffer is also supplemented with 125 nM Supplement Enzymatic Buffer (SEB) from the Cisbio kit.
2X FAC of enzyme and 2X FAC ATP diluted in 1X complete enzyme buffer is incubated at room temperature for 20 minutes to preactivate the enzyme. Following this preactivation step, 5 ul/well of enzyme+ATP mix is added using a Multidrop Micro to the assay plate, spotted with 0.2 ul 100% DMSO compound. This is left for 20 mins at room temperature before adding 5 ul of 2 uM TK-substrate-Biotin (from the Cisbio kit) diluted in 1X enzyme buffer (1 uM FAC) using the Multidrop Micro. The reaction is incubated at room temperature for the optimized assay reaction time (see table). The reaction is stopped by adding 10 ul/well HTRF Detection Buffer containing 0.25 uM Streptavidin-XL665 (0.125 uM FAC) and 1:200 TK Antibody-Cryptate using a Multidrop.
After the Detection Reagent addition, plates are covered and incubated at room temperature for 60 minutes. HTRF signal is read using an Envision reader, measured as a ratio of emissions at two different wavelengths, 620 nm and 665 nm. […] Test compound data are expressed as percentage inhibition defined by HPE and ZPE values for each plate. Percentage inhibition in the presence of test compound is plotted against compound concentration on a log scale to determine an IC50 from the resultant sigmoid curve.
Below are TrkA IC50 data generated using the PV3144 TrkA enzyme assay. Where more than one reading was taken, the arithmetic mean is presented.
In general terms: In TR-FRET formats the signal depends on donor and acceptor labels being close together.

Broadly, the IC50 is the concentration at which inhibition is half-maximal.

T1 sequence (P04629 441-796): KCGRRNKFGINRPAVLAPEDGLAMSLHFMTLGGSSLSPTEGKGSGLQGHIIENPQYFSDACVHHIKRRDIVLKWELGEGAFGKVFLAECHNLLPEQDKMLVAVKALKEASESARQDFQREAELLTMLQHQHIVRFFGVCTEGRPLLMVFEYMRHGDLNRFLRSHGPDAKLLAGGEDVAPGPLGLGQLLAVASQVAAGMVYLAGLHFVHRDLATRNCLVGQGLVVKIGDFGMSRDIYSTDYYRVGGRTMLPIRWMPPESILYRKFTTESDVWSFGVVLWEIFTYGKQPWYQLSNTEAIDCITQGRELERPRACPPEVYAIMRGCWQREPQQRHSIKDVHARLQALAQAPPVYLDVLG

In the case of `CC(C)(C)n1cc(C(=O)c2cc(NC(=O)Cn3ccc(C(F)(F)F)n3)ccn2)c2cncnc21` [Example 41, N-{2-[(7-tert-butyl-7H-pyrrolo[2,3-d]pyrimidin-5-yl)carbonyl]pyridin-4-yl}-2-[3-(trifluoromethyl)-1H-pyrazol-1-yl]acetamide], the IC50 was determined as 10.7 nM. Then `CC(C)n1cc(C(=O)c2cc(NC(=O)Cc3ccc(Cl)cn3)ccn2)c2cnc(N)nc21` [Example 86], with 35 nM; and `O=C(Cc1ccc(Cl)c(Cl)c1)Nc1ccnc(C(=O)c2cn(C(CO)CO)c3ncncc23)c1` [Example 99, 2-(3,4-dichlorophenyl)-N-(2-{[7-(1,3-dihydroxypropan-2-yl)-7H-pyrrolo[2,3-d]pyrimidin-5-yl]carbonyl}pyridin-4-yl)acetamide], with 430 nM; and `C[C@@H](CO)n1cc(C(=O)c2cc(NC(=O)Cc3ccc(F)cn3)ccn2)c2cncnc21` [Example 18, 2-(5-fluoropyridin-2-yl)-N-[2-({7-[(2S)-1-hydroxypropan-2-yl]-7H-pyrrolo[2,3-d]pyrimidin-5-yl}carbonyl)pyridin-4-yl]acetamide], with 202 nM. Then `CC(C)(CO)n1cc(C(=O)c2cc(NC(=O)Cc3ccc(C#N)cc3)ccn2)c2cnc(N)nc21` [Example 51, N-(2-{[2-amino-7-(1-hydroxy-2-methylpropan-2-yl)-7H-pyrrolo[2,3-d]pyrimidin-5-yl]carbonyl}pyridin-4-yl)-2-(4-cyanophenyl)acetamide], with 78.7 nM; and `O=C(Cc1cccc(OC(F)(F)F)c1)Nc1cc(C(=O)c2cn(CCO)c3ncncc23)ccn1` [Example 135, N-(4-{[7-(2-hydroxyethyl)-7H-pyrrolo[2,3-d]pyrimidin-5-yl]carbonyl}pyridin-2-yl)-2-[3-(trifluoromethoxy)phenyl]acetamide], with 21.5 nM; and `O=C(Cn1cc(C(F)(F)F)nn1)Nc1cc(C(=O)c2cn(CCO)c3ncncc23)ccn1` [Example 137, N-(4-{[7-(2-hydroxyethyl)-7H-pyrrolo[2,3-d]pyrimidin-5-yl]carbonyl}pyridin-2-yl)-2-[4-(trifluoromethyl)-1H-1,2,3-triazol-1-yl]acetamide], with 188 nM.

Regarding `COCc1cn(CC(=O)Nc2cc(C(=O)c3cn(C(C)C)c4ncncc34)ccn2)nn1` [Example 117, 2-[4-(methoxymethyl)-1H-1,2,3-triazol-1-yl]-N-(4-{[7-(propan-2-yl)-7H-pyrrolo[2,3-d]pyrimidin-5-yl]carbonyl}pyridin-2-yl)acetamide], the IC50 came out at 1550 nM. Then `O=C(Cc1ccc(Cl)cc1)Nc1cc(C(=O)c2cn(C(CO)CO)c3ncncc23)ccn1` [Example 113, 2-(4-Chlorophenyl)-N-[4-({7-[2-hydroxy-1-(hydroxymethyl)ethyl]-7H-pyrrolo[2,3-d]pyrimidin-5-yl}carbonyl)pyridin-2-yl]acetamide], with 58.9 nM; and `O=C(Cc1ccccc1OC(F)(F)F)Nc1cc(C(=O)c2cn(CCO)c3ncncc23)ccn1` [Example 134, N-(4-{[7-(2-hydroxyethyl)-7H-pyrrolo[2,3-d]pyrimidin-5-yl]carbonyl}pyridin-2-yl)-2-[2-(trifluoromethoxy)phenyl]acetamide], with 583 nM.

As to “N-(2-{[7-(propan-2-yl)-7H-pyrrolo[2,3-d]pyrimidin-5-yl]carbonyl}pyridin-4-yl)-2-[4-(trifluoromethyl)-1H-1,2,3-triazol-1-yl]acetamide [Example 80]”, the IC50 was found to be 150 nM.

For the compound `CC(CO)(CO)n1cc(C(=O)c2cc(NC(=O)Cc3ccc(C#N)cc3)ccn2)c2cncnc21` [Example 107, 2-(4-cyanophenyl)-N-(2-{[7-(1,3-dihydroxy-2-methylpropan-2-yl)-7H-pyrrolo[2,3-d]pyrimidin-5-yl]carbonyl}pyridin-4-yl)acetamide], the IC50 was found to be 467 nM.

The record behind these values is patent publication US20150218172A1, “Pyrrolo[2,3-D]Pyrimidine Tropomyosin-Related Kinase Inhibitors” (PFIZER LIMITED, priority 2012, published 2015).
